SMILES strings stand for the structures.

The source of these data is patent US11851449B2, “Heterocyclic amide compounds having an RORvt inhibitory action” (TAKEDA PHARMACEUTICAL COMPANY LIMITED, priority 2013, dated 2023).

In assay [1] the target is T1, RORγt (Homo sapiens, UniProt P51449).
T1 sequence (P51449 1-497 isoform P51449-2): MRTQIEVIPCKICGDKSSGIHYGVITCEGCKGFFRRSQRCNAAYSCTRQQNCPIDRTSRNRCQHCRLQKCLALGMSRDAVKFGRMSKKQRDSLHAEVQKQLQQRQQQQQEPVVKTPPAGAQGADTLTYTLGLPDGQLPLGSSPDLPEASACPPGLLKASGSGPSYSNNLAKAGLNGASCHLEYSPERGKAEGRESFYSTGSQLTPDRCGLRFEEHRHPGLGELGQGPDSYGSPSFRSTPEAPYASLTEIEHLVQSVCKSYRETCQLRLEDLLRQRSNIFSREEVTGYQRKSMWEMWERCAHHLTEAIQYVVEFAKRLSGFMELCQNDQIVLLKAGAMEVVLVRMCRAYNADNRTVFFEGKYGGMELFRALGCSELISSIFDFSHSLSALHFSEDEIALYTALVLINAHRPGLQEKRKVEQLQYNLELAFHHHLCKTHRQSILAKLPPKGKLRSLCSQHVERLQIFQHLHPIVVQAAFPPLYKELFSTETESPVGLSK
Nature of the assay: Jurkat reporter test (human IL-17 ROR response element luciferase reporter). The class given is cell-based. Particulars: Jurkat, read-out: luminescence level inhibitory rate (%) at test compound 3 μM. The method in brief:
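Jurkat cells were electroporated (1350 V, 10 ms, 3 pulses) with reporter constructs, then cultured overnight with compound in RPMI containing 10% lipid-reduced FCS, 10 mM HEPES pH 7.5 and 5 μM lovastatin. Luciferase was quantified by Bright-Glo luminescence after 10 min at room temperature.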

Assay [2] has as its target T1, RORγt. The experiment in a line: RORγt binding test (TR-FRET, fluorescent-labeled cholesterol). Particulars: read-out: binding inhibitory rate (%) of fluorescent-labeled cholesterol to RORγt at test compound 1 μM. The method in brief: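 His-tagged RORγt and BODIPY-cholesterol were incubated with compound for 20 min at room temperature in Tris-HCl pH 7.5, 100 mM NaCl, 1 mM DTT and 0.1% BSA. Terbium anti-His antibody was then added for a further 20 min.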

The subject of another assay is IL-17A gene expression. The experiment in a line: Effect on IL-23-induced IL-17A gene expression in mice. The class given is in vivo. Conditions: Balb/c mice, ear tissue 24 hr after intradermal IL-23; 100 mg/kg orally 30 min before and 8 hr after IL-23; versus the negative control group. The procedure: Effect on IL-23-Induced IL-17A Gene Expression in Mice
A mouse IL-23 solution (500 ng/10 μL, prepared by Takeda Pharmaceutical Company Limited) or PBS (10 μL, negative control group) was administered intradermally in the ear of Balb/c mice (Charles River Japan, male, 7 weeks old). Twenty-four hr after administration, the ear was resected under isoflurane anesthesia. The test compound was suspended in 0.5% methylcellulose and administered orally 30 min before and 8 hr after IL-23 administration.
RNA extraction from the ear tissue and quantitative PCR were performed as follows. Specifically, ear tissue 5 mm in diameter was punched from an area of the resected ear centering on the IL-23 injection site, and the tissue was immersed in RNAlater (QIAGEN) for at least 18 hr. The RNAlater-treated ear tissue was homogenized in 350 μL of RLT buffer (RNeasy mini kit, QIAGEN) and treated (55° C., 10 min) with Proteinase K (QIAGEN). Total RNA was then extracted according to the RNeasy mini kit protocol. The RNA thus obtained was then reverse transcribed into cDNA using the High-Capacity RNA-to-cDNA kit (Applied Biosystems), and the amount of each cytokine expressions was measured by real-time PCR (Viia7™, Applied Biosystems). The PCR buffer used was TaqMan Fast Advanced Master Mix (Applied Biosystems), and TaqMan Gene Expression Assays (Applied Biosystems) Mm00439618 m1 (IL-17A) and 4352341E (β-actin) were used for cytokine gene detection. The IL-17A gene expression level was normalized to the β-actin gene expression level, and the percent inhibition of IL-17A gene expression with the test compound was then calculated.
The results obtained with the above-described method (percent inhibition of IL-17A gene expression with oral administration of the test compound) are shown in Table 3.

For assay [3], the system named is mouse model of IL-23-induced psoriasis. Nature of the assay: Effect in a mouse model of IL-23-induced psoriasis. The class given is in vivo. Conditions: Balb/c mice, 100 mg/kg orally twice daily, versus the negative control group. The procedure: Effect in a Mouse Model of IL-23-Induced Psoriasis
Mouse IL-23 (500 ng/15 μL, R&D) or PBS (15 μL, negative control group) was administered intradermally in the ear of Balb/c mice (Charles River Japan, male, 7 weeks old) 5 times every other days. Seven hr after IL-23 administration at 8 days after the initial administration (final administration), the mice were anesthetized with isoflurane, and ear thickness was measured with calipers. After the ear thickness was measured, the ear was resected, the tissue 8 mm in diameter was punched from an area centering on the IL-23 injection site, and the tissue was weighed. […]
The change in ear thickness in this model was evaluated by calculating the difference in measured thickness between before IL-23 administration and 7 hr after the final IL-23 administration.
The amount of IL-17 in the ear tissue was performed as follows. […] The homogenized solution was centrifuged, and the amount of IL-17 in the supernatant was measured using ELISA kit (R&D), and the amount of protein in the supernatant was measured using pierce BCA protein assay kit (Thermo scientific). The amount of IL-17 in each ear tissue was normalized to the amount of protein, and the percent inhibition of IL-17A production with the test compound was then calculated. […]

For assay [4], the target named is T1, RORγt. Nature of the assay: Cofactor recruitment test (Alpha Screen, biotinylated SRC-1 peptide). The class given is biochemical. Conditions: read-out: signal value inhibitory rate (%) at test compound 1 μM. The protocol: Cofactor Recruitment Test
Cofactor recruitment test was performed by Alpha Screen (Histidine Detection Kit, PerkinElmer) method. First, a test compound was diluted with an assay buffer (50 mM Tris-HCl (pH 7.5), 50 mM KCl, 1 mM DTT, 0.1% BSA) and added to a 384 well plate by 5 μL. […] The mixture was stood in a dark place for 1 hr, and the signal value was measured by Envision (PerkinElmer).

Turning to `COc1ccc([C@H](C(=O)Nc2ccc([Si](C)(C)C)c(F)c2)N(C)C(=O)c2cc(O)no2)cc1` [Example 24, N-((1R)-2-((3-fluoro-4-(trimethylsilyl)phenyl)amino)-1-(4-methoxyphenyl)-2-oxoethyl)-3-hydroxy-N-methyl-1,2-oxazole-5-carboxamide], the inhibition at 3 µM on RORγt [1] was 100%. For the same molecule, the inhibition at 1 µM at RORγt [2] turned out to be 102%; at RORγt [4], 95.3%. Moreover, the “percent inhibition of IL-17A gene expression” value in the assay with IL-17A gene expression turned out to be 65%. Further, in assay [3] (IL-23 intradermally in the ear 5 times every other day), the “percent inhibition of ear thickness” value is 76%. Further, the “percent inhibition of IL-17 production” value in assay [3] (ear tissue, ELISA normalized to protein) is on record as 96%.
